This note sets out measurements from patent US20250270190A1, “KIT INHIBITORS” (BLUEPRINT MEDICINES CORPORATION, priority 2022, published 2025).

Molecules are shown by their SMILES. Counter-ions that a name gives are not always drawn.

T1 sequence (P10721 26-976 V560G/V654A): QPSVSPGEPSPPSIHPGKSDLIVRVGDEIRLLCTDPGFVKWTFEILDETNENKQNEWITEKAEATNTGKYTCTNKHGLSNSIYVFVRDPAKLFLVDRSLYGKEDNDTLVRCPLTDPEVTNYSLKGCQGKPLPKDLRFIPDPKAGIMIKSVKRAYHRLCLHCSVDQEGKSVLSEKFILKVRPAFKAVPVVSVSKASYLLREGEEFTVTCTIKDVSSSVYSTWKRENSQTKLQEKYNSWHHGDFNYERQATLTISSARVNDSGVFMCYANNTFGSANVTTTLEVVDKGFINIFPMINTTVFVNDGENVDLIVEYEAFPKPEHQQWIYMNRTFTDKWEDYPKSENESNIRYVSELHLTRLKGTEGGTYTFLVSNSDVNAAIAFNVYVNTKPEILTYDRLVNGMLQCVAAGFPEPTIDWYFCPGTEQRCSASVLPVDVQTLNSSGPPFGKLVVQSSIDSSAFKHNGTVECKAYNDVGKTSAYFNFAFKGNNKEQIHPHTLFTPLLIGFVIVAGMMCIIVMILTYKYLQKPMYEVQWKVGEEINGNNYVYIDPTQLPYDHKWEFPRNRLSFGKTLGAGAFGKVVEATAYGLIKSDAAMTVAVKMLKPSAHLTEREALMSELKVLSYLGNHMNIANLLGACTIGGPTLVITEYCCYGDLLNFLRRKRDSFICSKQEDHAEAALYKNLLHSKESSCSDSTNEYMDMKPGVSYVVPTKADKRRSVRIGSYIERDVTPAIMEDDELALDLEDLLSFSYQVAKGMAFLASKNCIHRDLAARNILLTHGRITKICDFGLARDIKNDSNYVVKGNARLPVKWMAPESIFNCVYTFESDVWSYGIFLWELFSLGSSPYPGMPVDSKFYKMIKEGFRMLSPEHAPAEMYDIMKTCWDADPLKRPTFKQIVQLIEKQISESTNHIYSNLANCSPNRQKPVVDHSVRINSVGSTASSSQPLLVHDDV

This test concerns the target T1, c-kit autophosphorylation (Phospho c-Kit Tyr721) in HMC 1.1 (exon 11/13) cells, V654A (Homo sapiens, UniProt P10721, V560G/V654A).
T1 construct: endogenous in cells; host or cells: HMC 1.1 (exon 11/13) cells
As to the kind of experiment: pKIT Meso Scale Discovery (MSD) assay, inhibition of autophosphorylation of KIT, HMC1.1_V654A. The test is classed as cell-based. The conditions noted are these: Table 1, cell line not named for Table 1, b1056 names pKIT HMC1.1_V654A, read-out: Code (IC50 for inhibition of autophosphorylation of KIT, pKIT MSD assay). The method, boiled down:
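HMC1.1 cells were serum-starved for 4 h in serum-free, iron-free, phenol red-free IMDM, then treated with compound in dose-response for 90 min at 37 °C. Staurosporine and DMSO served as controls. Lysates were analysed by MSD electrochemiluminescence immunoassay for phospho-c-Kit Tyr721, and % inhibition of autophosphorylation was derived.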
As a reminder, the IC50 is the concentration that inhibits the measured activity by half. As to `COc1cc(Nc2cc(N)nc(C(F)F)n2)ncc1-c1cnn(C(C)C)c1` [Compound 56], the IC50 was < 10 nM.

Consider `Nc1cc(Nc2cc(NC3CC3)c(C(=O)NC3CC3)cn2)nc(C(F)F)n1` [Compound 57, 6-((6-amino-2-(difluoromethyl)pyrimidin-4-yl)amino)-N-cyclopropyl-4-(cyclopropylamino)nicotinamide], for which the IC50 was < 10 nM.

Regarding `Cc1noc(-c2cnc(Nc3cc(N)nc(C(F)F)n3)cc2NC(C)C)n1` [Compound 58, 2-(difluoromethyl)-N4-(4-(isopropylamino)-5-(3-methyl-1,2,4-oxadiazol-5-yl)pyridin-2-yl)pyrimidine-4,6-diamine], the IC50 was > 40 nM.

`COc1cc(Nc2cc(N)nc(C(F)F)n2)ncc1-c1cnn(CCO)c1` [Compound 59, 2-(4-(6-((6-amino-2-(difluoromethyl)pyrimidin-4-yl)amino)-4-methoxypyridin-3-yl)-1H-pyrazol-1-yl)ethan-1-ol trifluoroacetate]: the IC50 is 10 to 40 nM.

With `CC(C)Nc1cc(Nc2cc(N)nc(C(F)F)n2)ncc1C(=O)NC1CC1` [Compound 60, 6-((6-amino-2-(difluoromethyl)pyrimidin-4-yl)amino)-N-cyclopropyl-4-(isopropylamino)nicotinamide trifluoroacetate], the IC50 was < 10 nM.

Take `CNC(=O)c1cnc(Nc2cc(N)nc(C(F)F)n2)cc1NCC1CCC1` [Compound 61, 6-((6-amino-2-(difluoromethyl)pyrimidin-4-yl)amino)-4-((cyclobutylmethyl)amino)-N-methylnicotinamide]: the half-inhibitory concentration (IC50) was in the range of 10 to 40 nM.

Consider `CCCNC(=O)c1cnc(Nc2cc(N)nc(C(F)F)n2)cc1NC1CC1` [Compound 62, 6-((6-amino-2-(difluoromethyl)pyrimidin-4-yl)amino)-4-(cyclopropylamino)-N-propylnicotinamide], for which the IC50 was 10 to 40 nM.

Regarding `CC(C)NC(=O)c1cnc(Nc2cc(N)nc(C(F)F)n2)cc1NC1CC1` [Compound 63, 6-((6-amino-2-(difluoromethyl)pyrimidin-4-yl)amino)-4-(cyclopropylamino)-N-isopropylnicotinamide], the 50% inhibitory concentration (IC50) was < 10 nM.

As for `CNC(=O)c1cnc(Nc2cc(N)nc(C(F)F)n2)cc1NC1CCOC1` (centres unmarked) [Compound 64, 6-((6-amino-2-(difluoromethyl)pyrimidin-4-yl)amino)-N-methyl-4-((tetrahydrofuran-3-yl)amino)nicotinamide], the IC50 is 10 to 40 nM.

Take `CCC(C)CNc1cc(Nc2cc(N)nc(C(F)F)n2)ncc1C(=O)NC` (centres unmarked) [Compound 65, 6-((6-amino-2-(difluoromethyl)pyrimidin-4-yl)amino)-N-methyl-4-((2-methylbutyl)amino)nicotinamide]: the IC50 is 10 to 40 nM.

For `CNC(=O)c1cnc(Nc2cc(N)nc(C(F)F)n2)cc1NCCC(C)C` [Compound 66, 6-((6-amino-2-(difluoromethyl)pyrimidin-4-yl)amino)-4-(isopentylamino)-N-methylnicotinamide], the IC50 was in the range of 10 to 40 nM.

In the case of `CCCNC(=O)c1cnc(Nc2cc(N)nc(C(F)F)n2)cc1NC(C)C` [Compound 67, 6-((6-amino-2-(difluoromethyl)pyrimidin-4-yl)amino)-4-(isopropylamino)-N-propylnicotinamide], the IC50 is < 10 nM.

As for `Cn1cc(-c2cnc(Nc3cc(N)nc(C(F)F)n3)cc2OC(F)F)cn1` [Compound 69, N4-(4-(difluoromethoxy)-5-(1-methyl-1H-pyrazol-4-yl)pyridin-2-yl)-2-(difluoromethyl)pyrimidine-4,6-diamine], the IC50 was in the range of 10 to 40 nM.

Regarding `COc1cc(Nc2cc(N)nc(C(F)F)n2)ncc1-c1cnn(C(F)F)c1` [Compound 70, 2-(difluoromethyl)-N4-(5-(1-(difluoromethyl)-1H-pyrazol-4-yl)-4-methoxypyridin-2-yl)pyrimidine-4,6-diamine], the IC50 was < 10 nM.

For `CCNC(=O)c1cnc(Nc2cc(N)nc(C(F)F)n2)cc1N[C@@H](C)CF` [Compound 71, (S)-6-((6-amino-2-(difluoromethyl)pyrimidin-4-yl)amino)-N-ethyl-4-((1-fluoropropan-2-yl)amino)nicotinamide], the IC50 is < 10 nM.

Take `CCNC(=O)c1cnc(Nc2cc(N)nc(C(F)F)n2)cc1N[C@H](C)CF` [Compound 72, (R)-6-((6-amino-2-(difluoromethyl)pyrimidin-4-yl)amino)-N-ethyl-4-((1-fluoropropan-2-yl)amino)nicotinamide]: the IC50 is < 10 nM.

On to `CNC(=O)c1cnc(Nc2cc(N)nc(C(F)F)n2)cc1N[C@H](C)C(F)F` [Compound 73, (R)-6-((6-amino-2-(difluoromethyl)pyrimidin-4-yl)amino)-4-((1,1-difluoropropan-2-yl)amino)-N-methylnicotinamide], for which the IC50 is < 10 nM.

Regarding `CNC(=O)c1cnc(Nc2cc(N)nc(C(F)F)n2)cc1N[C@@H](C)C(F)F` [Compound 74, (S)-6-((6-amino-2-(difluoromethyl)pyrimidin-4-yl)amino)-4-((1,1-difluoropropan-2-yl)amino)-N-methylnicotinamide], the IC50 was < 10 nM.

Consider `CNC(=O)c1cnc(Nc2cc(N)nc(C(F)F)n2)cc1NC(CF)CF` [Compound 75, 6-((6-amino-2-(difluoromethyl)pyrimidin-4-yl)amino)-4-((1,3-difluoropropan-2-yl)amino)-N-methylnicotinamide], for which the IC50 is < 10 nM.

As for `COc1cc(Nc2cc(N)nc(C(F)F)n2)ncc1-c1cnn(C2CNC2)c1` [Compound 76, N4-(5-(1-(azetidin-3-yl)-1H-pyrazol-4-yl)-4-methoxypyridin-2-yl)-2-(difluoromethyl)pyrimidine-4,6-diamine formate], the IC50 was > 40 nM.

As to `Cn1cc(-c2cnc(Nc3cc(N)nc(C(F)F)n3)cc2OC2COC2)cn1` [Compound 77, 2-(difluoromethyl)-N4-(5-(1-methyl-1H-pyrazol-4-yl)-4-(oxetan-3-yloxy)pyridin-2-yl)pyrimidine-4,6-diamine], the IC50 was < 10 nM.

For `COc1cc(Nc2cc(N)nc(C(F)F)n2)ncc1-c1cnn(C2COC2)c1` [Compound 78, 2-(difluoromethyl)-N4-(4-methoxy-5-(1-(oxetan-3-yl)-1H-pyrazol-4-yl)pyridin-2-yl)pyrimidine-4,6-diamine], the IC50 is < 10 nM.

Regarding `Nc1cc(Nc2cc(NC3CC3)c(C(=O)NCC3CC3)cn2)nc(C(F)F)n1` [Compound 79, 6-((6-amino-2-(difluoromethyl)pyrimidin-4-yl)amino)-4-(cyclopropylamino)-N-(cyclopropylmethyl)nicotinamide], the IC50 lay in the range of 10 to 40 nM.

As for `CCOc1cc(Nc2cc(N)nc(C(F)F)n2)ncc1-c1cnn(CCN)c1` [Compound 81, N4-(5-(1-(2-aminoethyl)-1H-pyrazol-4-yl)-4-ethoxypyridin-2-yl)-2-(difluoromethyl)pyrimidine-4,6-diamine], the IC50 lay in the range of 10 to 40 nM.

Consider `CNC(=O)c1cnc(Nc2cc(N)nc(C(F)F)n2)cc1NCC(F)(F)F` [Compound 82, 6-((6-amino-2-(difluoromethyl)pyrimidin-4-yl)amino)-N-methyl-4-((2,2,2-trifluoroethyl)amino)nicotinamide], for which the IC50 is < 10 nM.

On to `Cn1cc(-c2cnc(Nc3cc(N)nc(C(F)F)n3)cc2OCCCO)cn1` [Compound 83, 3-((2-((6-amino-2-(difluoromethyl)pyrimidin-4-yl)amino)-5-(1-methyl-1H-pyrazol-4-yl)pyridin-4-yl)oxy)propan-1-ol], for which the IC50 is 10 to 40 nM.
